According to patent US20090011424A1, “Cancer-suppressing agents” (Tokyo Medical and Dental University, priority 2005, published 2009):

Tested on: SMS-KAN cell
Test: messenger RNA expression analysis, AceGene Human oligo chip 30 K, NR1I2-expressing clone B1 vs control clone
Assay type: cell-based
Conditions: 1st: Cy3-B1/Cy5-control
Description: The NR1I2 gene has been known as a transcriptional factor. Thus, it is possible to know what type of gene expression is controlled by obtaining messenger RNAs from cells causing NR1I2 protein expression and cells not causing such expression, and comparing the expression levels thereof with each other. As described above, the NR1I2 gene protein may have an effect of inhibiting cancer. […] Therefore, pCMV-Tag3 vector not containing a foreign gene as a control was introduced into SMS-KAN cell, and pCMV-Tag3-VP-NR1I2 containing the NR1I2 gene as a test sample was introduced into SMS-KAN cell. As a result, a control cell clone and a cell clone B1 permanently causing NR1I2 protein expression were obtained. Thereafter, analysis of messenger RNA expression was carried out using these two types of cells and an AceGene Human oligo chip 30 K (DNA Chip Research Inc.), with which the expression levels of 30,000 human genes can be observed (Inoue. J., et al. Am J. Pathol. 165. 71. 2004). A complementary strand DNA (complimentary DNA) was prepared, into which aminoallyl-dUTP (Ambion Inc.) was incorporated using an Oligo (dT) 12-18 primer. Then, the aminoallyl group was labeled with reactive Cy3 (cyanin 3) and Cy5 (cyanin 5) (Amersham Biosciences) via a coupling reaction. Hybridization was performed twice (1st: Cy3-B1/Cy5-control; 2nd: Cy5-B1/Cy3-control). Signals were measured using a GenePix 4000B (Axon Instruments) so as to be analyzed by GenePix Pro 4.1 software (Axon Instruments). Tables 3 and 4 are lists of genes, where in the cases of SMS-KAN cells into which the NR1I2 gene had been introduced in the two experiments, the expression levels were 1.5-fold or greater than the expression level in the case of a control cell clone.

For “NR1I2 gene: human-derived gene, nuclear receptor subfamily 1, group I, member 2 (pregnane X receptor, PXR), nucleotide sequence SEQ ID NO: 1”, the “ADAMTS2 expression level Ratio 1st” value was 1.58, the “ADNP expression level Ratio 1st” value was 1.61 and the “AP3S2 expression level Ratio 1st” value was 2.51. The “APEG1 expression level Ratio 1st” value was 1.88, the “APOA1 expression level Ratio 1st” value was 1.98 and the “APP expression level Ratio 1st” value was 2.03. The “ARHC expression level Ratio 1st” value was 1.50, the “ARL2 expression level Ratio 1st” value was 1.51 and the “ASCL2 expression level Ratio 1st” value was 2.43. For the same substance, the “ASH1 expression level Ratio 1st” value was 1.81, the “B4GALT5 expression level Ratio 1st” value was 1.54 and the “BARD1 expression level Ratio 1st” value was 1.90. The “BCAT2 expression level Ratio 1st” value was 1.61, the “BLP2 expression level Ratio 1st” value was 1.51 and the “BMP15 expression level Ratio 1st” value was 1.50. The “C6orf25 expression level Ratio 1st” value was 1.74, the “CCNA1 expression level Ratio 1st” value was 1.89 and the “CDC7L1 expression level Ratio 1st” value was 1.84. For the same substance, the “CISH expression level Ratio 1st” value was 2.14, the “CORO2A expression level Ratio 1st” value was 1.71 and the “Cab45 expression level Ratio 1st” value was 1.84. The “DKFZp434G05 expression level Ratio 1st” value was 1.56, the “DKKL1 expression level Ratio 1st” value was 1.53 and the “DNA12 expression level Ratio 1st” value was 1.52. For the same substance, the “EPHX1 expression level Ratio 1st” value was 2.22, the “ERCC1 expression level Ratio 1st” value was 1.82 and the “ETR101 expression level Ratio 1st” value was 1.65. The “EXT1 expression level Ratio 1st” value was 1.87, the “FLJ10737 expression level Ratio 1st” value was 1.51 and the “FLJ12389 expression level Ratio 1st” value was 2.16. The “FLJ13197 expression level Ratio 1st” value was 2.95, the “FLJ13479 expression level Ratio 1st” value was 1.92 and the “FLJ20288 expression level Ratio 1st” value was 1.81. For the same substance, the “FLJ20555 expression level Ratio 1st” value was 1.51, the “FLJ23462 expression level Ratio 1st” value was 1.64 and the “FOFR3 expression level Ratio 1st” value was 1.56. The “GLI2 expression level Ratio 1st” value was 2.68, the “GNE expression level Ratio 1st” value was 1.87 and the “GSTT2 expression level Ratio 1st” value was 3.23. For the same substance, the “GUCY1A3 expression level Ratio 1st” value was 1.60, the “HHEX expression level Ratio 1st” value was 1.55 and the “HNT expression level Ratio 1st” value was 1.55. For the same substance, the “HPCL2 expression level Ratio 1st” value was 1.72, the “ICAM5 expression level Ratio 1st” value was 1.52 and the “IFIT4 expression level Ratio 1st” value was 1.52. The “INSL6 expression level Ratio 1st” value was 1.66, the “IRC039700 expression level Ratio 1st” value was 2.12 and the “KCNJ15 expression level Ratio 1st” value was 1.88. For the same substance, the “KIAA0161 expression level Ratio 1st” value was 1.54, the “KIAA0212 expression level Ratio 1st” value was 2.01 and the “LBP-9 expression level Ratio 1st” value was 1.93. For the same substance, the “LDB1 expression level Ratio 1st” value was 1.58, the “LICAM expression level Ratio 1st” value was 1.87 and the “LILRB5 expression level Ratio 1st” value was 1.73. The “LOC51024 expression level Ratio 1st” value was 1.67, the “LRP8 expression level Ratio 1st” value was 1.52 and the “LZLP expression level Ratio 1st” value was 1.58. The “MAFG expression level Ratio 1st” value was 2.51, the “MGC2306 expression level Ratio 1st” value was 1.55 and the “MGC2941 expression level Ratio 1st” value was 1.90. For the same substance, the “MPP6 expression level Ratio 1st” value was 1.67, the “MT-ACT48 expression level Ratio 1st” value was 1.59 and the “OCM expression level Ratio 1st” value was 1.7. For the same substance, the “OMP expression level Ratio 1st” value was 1.55, the “OPA3 expression level Ratio 1st” value was 2.46 and the “ORC5L expression level Ratio 1st” value was 1.67. The “ORM1 expression level Ratio 1st” value was 1.58, the “PCDHA4 expression level Ratio 1st” value was 1.94 and the “PCDHB10 expression level Ratio 1st” value was 1.63. The “PDCD8 expression level Ratio 1st” value was 2.00, the “PFKFB4 expression level Ratio 1st” value was 4.90 and the “PGAM1 expression level Ratio 1st” value was 2.13. The “PITPN expression level Ratio 1st” value was 1.73, the “PLA2G2A expression level Ratio 1st” value was 3.01 and the “PLCE1 expression level Ratio 1st” value was 2.89. The “PLEKHA1 expression level Ratio 1st” value was 1.54, the “PRO2121 expression level Ratio 1st” value was 1.89 and the “PRO2831 expression level Ratio 1st” value was 1.51. For the same substance, the “RDH5 expression level Ratio 1st” value was 1.62, the “RP1 expression level Ratio 1st” value was 1.54 and the “RPL39L expression level Ratio 1st” value was 2.30. For the same substance, the “RPS16 expression level Ratio 1st” value was 1.56, the “SC65 expression level Ratio 1st” value was 1.56 and the “SCD expression level Ratio 1st” value was 1.74. The “SCN2B expression level Ratio 1st” value was 1.52, the “SLC22A11 expression level Ratio 1st” value was 1.66 and the “SNAP91 expression level Ratio 1st” value was 3.38. The “STK11 expression level Ratio 1st” value was 1.62, the “SURF1 expression level Ratio 1st” value was 1.92 and the “TCEA1 expression level Ratio 1st” value was 1.54. For the same substance, the “TGM2 expression level Ratio 1st” value was 1.59, the “TIMM10 expression level Ratio 1st” value was 1.87 and the “TLAL1 expression level Ratio 1st” value was 2.34. For the same substance, the “TMPRSS4 expression level Ratio 1st” value was 1.55, the “TOP3B expression level Ratio 1st” value was 1.59 and the “TPARL expression level Ratio 1st” value was 1.56. The “TRPV4 expression level Ratio 1st” value was 1.77, the “TSPAN-1 expression level Ratio 1st” value was 1.67 and the “UXT expression level Ratio 1st” value was 2.90. For the same substance, the “WHSC2 expression level Ratio 1st” value was 1.65.
